# Data published in patent publication US20070043034A1, “Chlorine Ion Uptake Modulators and Uses Thereof” (priority 2005, published 2007).
# Columns and labels:
# [1] = test system: low-Mg^2+ induced recurrent seizures in the intact hippocampus; test: Low-Mg2+ ACSF induced recurrent seizures in the intact hippocampus in vitro; assay type: cell-based, rat; details: phenobarbital 100 μM
# Text: High expression level of the Na^+ K^+-2Cl^− (NKCCl) co-transporter in immature neurons causes the accumulation of chloride ions and a depolarized Cl^− equilibrium potential (ECl). This is linked to a higher seizure propensity and poor EEG response in neonates to the barbiturates and benzodiazepines, conventional anticonvulsant drugs that target Cl^−-permeable GABAA-receptor (GABAA-R) operated channels. […] Recurrent ictal-like seizures were induced by low-Mg^+ ACSF in intact hippocampal preparations in vitro. […] Bumetanide decreased both seizure frequency and seizure power.
# FIGS. 11A-11C are graphs of low-Mg^2+πinduced recurrent seizures in the intact hippocampus in vitro. […] First and last seizures from 5 hour recording are shown on an expanded time scale. Right, corresponding power spectra in the 0.1-1000 Hz frequency band. […] Summary data are taken from ten hippocampi. […] Power of the first seizure in each recording was considered as 100%. Data are taken from 18 recordings in 10 preparations from P4-6 rats.
# FIGS. 12A-12C are graphs showing low efficiency of phenobarbital in neonatal seizures. FIG. 12A is a graph showing extracellular field potential recording in the CA3 pyramidal cell layer in the intact hippocampus of a P5 rat. Continuous application of low-Mg^2+ ACSF induced recurrent tonic-clonic seizures. […] The right portion corresponds to power spectra in the 0.1-1000 Hz frequency range. […] Data are from ten experiments that were combined. FIG. 12C is a graph showing power of recurrent seizures before, during and after phenobarbital application. Power of the first seizure in each recording was considered as 100%. Seizures were not depressed by phenobarbital indicating its low efficiency.
# FIGS. 13A-13C are graphs showing that alteration of Cl^−-transport by bumetanide enhanced efficacy of phenobarbital in neonatal seizures. FIG. 13A is a graph of extracellular field potential recording in the CA3 pyramidal cell layer in the intact hippocampus of a P5 rat. Application of low-Mg^2+ ACSF induced recurrent seizures. […] These are shown on an expanded time scale. The right portion of FIG. 13A is a power spectra of extracellular field potential activity before and during application of drugs. FIG. 13B is a graph showing inter-seizure intervals before, during and after application of drugs. In 75% of experiments seizures were abolished (ISI>120 min) by simultaneous application of phenobarbital and bumetanide. FIG. 13C is a graph showing power of recurrent seizures before, during and after simultaneous application of phenobarbital and bumetanide. Power of the first seizure in each recording was considered as 100%. Seizures were depressed by combination of drugs.
# FIGS. 14A and 14B are graphs showing alteration of Cl^−-transport for early-life seizure therapy. […]
# KA-induced rat seizures = test: Kainic acid (KA) induced seizures in rat pups, EEG recording in vivo; details: KA 2 mg/kg s.c.
# Text: Kainic Acid (KA) is a commonly used agent for creating an in vivo neonatal-like seizure model in rats for study. It is believed that this seizure model closely parallels human neonatal seizure disorders. KA, a glutamate receptor agonist, was used to induce neonatal-like seizures in postnatal (P) 7-12 day male Wistar rats. The rats were equipped with electrodes including recording and reference electrodes by standard means. There are many known methods for measuring parameters of seizures, in this example electrical signals were digitized using an analogue-to-digital converter for example a DigiData 1322A (Axon Instuments USA). The sampling interval can vary depending on the desired target interval. In this example, the sampling interval per signal was 200 […]s (5 kHz). For data analysis, several computer programs exist for capturing and analyzing these seizure parameters such as Clamp 9.2 (Axon Instruments, USA) and Origon 5.0 (Microcal Software, USA) used here. Interictal spikes were determined by typical means utilizing band-pass filtered raw data.
# Many known methods exist for analyzing the power levels of different frequency components in a signal such as a signal recorded from a seizure episode. For example, power spectrum analysis can be performed after applying a Hamming window function. Unless otherwise indicated, power was calculated in 1-2 min time windows by integrating the root mean square value of the signal in frequency bands from 1 to 100 Hz (EEC band) and from 200 to 500 Hz (fast ripple band).
# Pharmaceutical compositions of the present invention can be administered to seizure-induced rats to test the seizure modulatory properties of the pharmaceutical composition. In one exemplary method, the inhibition of NKCCl and its affect on seizures in rat pups was studied. Two days after implantation of recording electrodes, six P9-P10 rats received subcutaneous injection of KA (2 mg/kg) and six P9-10 control rats received subcutaneous 0.9% sodium chloride saline injections. 10-20 minutes after KA injection regular pattern of behavioral signs started, involving scratching-like movements of the hindpaws, loss of balance and turning on the side. Recurrent interictal and ictal electroencephalographic patterns occurred 20-80 minutes (61.2±10.4 min; mean±se) after KA injection in all rats from this experimental group (FIG. 4B). […] Interictal spikes usually occurred synchronously in the left and right hemispheres. Frequency of the interictal spikes was 1.43±0.06 Hz (n=23 seizures in 6 rats). Before transition to ictal patterns, interictal spikes were usually followed by fast ripple (100-500 Hz) and gamma-frequency oscillations (20-50 Hz). Tonic-clonic seizures were the most common type of seizures induced by KA in P9-10 rats. Ictal-tonic phase lasted 12.6±1.4 s (16 seizures in 5 rats). Population spikes of 18.7±1.2 Hz were characteristic of the tonic phase of KA-induced seizures (FIG. 4C). Tonic discharges were followed by clonic bursts (FIG. 4C). Large amplitude population spikes followed by 100-200 Hz ripples and 200-1200 ms gamma frequency after discharges characterized the clonic bursts. The mean duration of the clonic phase was 36.4±5 s (25 seizures in 6 rats). The ictal patterns were followed by postictal depression (FIG. 4 B-4C). During ictal EEG activity, motor activity consisted of scratching, jerky movements, turning on the side or on the back and frequent tail shaking. Five to ten recurrent seizures with an average interval 379±24.5 s were followed by periodic epileptiform discharges (PLEDs) (FIG. 4D).
# In one exemplary experiment, a pharmaceutical composition of the present invention comprising bumetanide was compared to phenobarbital for effects on KA-induced rat seizures. Two days after implantation of recording electrodes, twenty-two P9-12 age-matched rats received subcutaneous injection with KA (2 mg/kg). […]
# Na^+-K^+-ATPase = test: Activity-dependent change of Cli after postsynaptic action potential trains in CA1 pyramidal neurons; assay type: cell-based, rat; details: in the presence of DHO 10 μM; 20 Hz, 2.5 min trains; P=0.27
# Description: The GABAB receptor antagonist CGP 55845A (1 μM) was included in the bath for most experiments. Bumetanide was stored as a 50 mM stock solution in ethanol at 4° C. and then diluted to 10 μM in ACSF. Dihydroouabain (10 μM) was diluted into ACSF and bath applied.
# Action potentials in current-clamped neurons was invoked by injecting depolarizing current pulses (1.5 ms, 2 nA) at 20 Hz for 2.5 min.
# Persistent increases in Cli and the GABA reversal potential have been observed following trains of action potentials. Action potential trains have long been known to cause long-lasting increases in the activity of Na^+—K^+-ATPase and corresponding changes in RMP. If NKCCl-mediated transport were thermodynamically limited, then the changes in ECl observed following action potential trains could be due to altered Na^+ and K^+ transmembrane gradients. Without being bound by any theory, it is believed that of the two cations, Nai would be most labile and would have the most influence on the Cli at which NKCCl-mediated transport reached equilibrium. Steady-state ECl and Cl^− transport kinetics were measured before and after a 20 Hz, 2.5 minute train of action potentials. […]
# FIGS. 10A-10D show activity-dependent increases in Cli. FIG. 10A is a graph showing that following a train of action potentials in the recorded cell (20 Hz, 2.5 min), Cli reached a new steady state. […]
# [2] = P9-12 rats, phenobarbital 25 mg/kg or bumetanide 0.1-0.2 mg/kg i.p.
SMILES,experiments in which seizure frequency was significantly reduced [1] [%],"seizure power ([1]; bumetanide 10 μM or both, 120 min application, intact hippocampus of P4-6 rats)","animals with recurrent ictal-clonic activity / EEG clonic seizures (KA-induced rat seizures; P9-12 rats, drug i.p. 10 min after KA (phenobarbital 25 mg/kg; bumetanide 0.1-0.2 mg/kg), 6 rats per group) [%]","frequency of the ictal-tonic discharges (KA-induced rat seizures; P9-12 rats, phenobarbital 25 mg/kg i.p.) [Hz]",duration of ictal-clonic phase (KA-induced rat seizures; [2]) [s],duration of ictal-tonic phase (KA-induced rat seizures; [2]) [s],frequency of interictal spikes (KA-induced rat seizures; [2]) [Hz],mean duration of single ictal episode (seizure including interictal and ictal phases) (KA-induced rat seizures; [2]) [s],mean interval between seizures (KA-induced rat seizures; [2]) [s],rats with ictal-tonic pattern / tonic-clonic seizures (KA-induced rat seizures; [2]) [%],"increase of power of EEG activity in the 20 minute window following seizure onset (KA-induced rat seizures; compared to pre-ictal baseline, phenobarbital 25 mg/kg or bumetanide 0.1-0.2 mg/kg i.p., saline control 444.7±136.3%) [%]",effect of action potential trains on Cli (Na^+-K^+-ATPase)
CCC1(c2ccccc2)C(=O)NC(=O)NC1=O [phenobarbital],70,no significant effect,100,14±3,12 ± 1.1,5.2 ± 1.4,1.56 ± 0.08,27.4 ± 2.6,241.3 ± 45.8,33.3,248±40.8,–
"C[C@@H]1O[C@@H](O[C@H]2C[C@@H](O)[C@]3(CO)[C@H]4[C@H](O)C[C@]5(C)[C@@H]([C@@H]6COC(=O)C6)CC[C@]5(O)[C@@H]4CC[C@]3(O)C2)[C@H](O)[C@H](O)[C@H]1O [DHO, dihydroouabain]",–,–,–,–,–,–,–,–,–,–,–,no effect
